One data set concerns the target T1, B1 bradykinin receptor (Homo sapiens, UniProt P46663).
T1 sequence (P46663 whole entry): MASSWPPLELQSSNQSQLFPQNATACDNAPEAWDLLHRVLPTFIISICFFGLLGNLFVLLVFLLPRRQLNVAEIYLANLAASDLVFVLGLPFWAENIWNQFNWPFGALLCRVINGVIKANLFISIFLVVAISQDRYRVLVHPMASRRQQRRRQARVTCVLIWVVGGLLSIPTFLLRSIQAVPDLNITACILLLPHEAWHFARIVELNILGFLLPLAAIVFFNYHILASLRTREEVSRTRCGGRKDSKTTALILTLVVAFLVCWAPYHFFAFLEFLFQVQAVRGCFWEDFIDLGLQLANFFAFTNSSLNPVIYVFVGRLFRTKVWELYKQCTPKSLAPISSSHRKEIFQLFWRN
The data set is described as follows: Binding affinity to human BK1 receptor.

The nature of data set [1]: Half life in rhesus monkey at 3 mg/kg, po or 1 mg/kg, iv. As to conditions: in vivo.
Data set [2] in a line: Ratio of drug level in brain to plasma in african green monkey at 2 mg/kg, iv after 30 mins. To be noted: chlorocebus aethiops.
Data set [3] can be described thus: Half life in mongrel dog at 3 mg/kg, po or 1 mg/kg, iv. To be noted: in vivo.
Data set [4] in a line: Clearance in Sprague-Dawley rat at 10 mg/kg, po or 2 mg/kg, iv. As to conditions: in vivo.
Data set [5] deals with T2, B1 bradykinin receptor (Homo sapiens) (UniProt P46663).
T2 sequence (whole entry): T1 sequence (P46663 whole entry)
The data set is described as follows: Receptor occupancy efficiency at human BK1 receptor in ex vivo transgenic receptor mouse occupancy model. It counts as functional.

Data set [6] is described as follows: in vivo. As to conditions: mongrel, dog, po, 3 mg/kg.
A short description of data set [7]: in vivo. As to conditions: rhesus monkey, po, 3 mg/kg.
Data set [8] in a line: Apparent permeability of the compound. As to conditions: not told.
A short description of data set [9]: in vivo. To be noted: Sprague-Dawley, rat, po, 10 mg/kg.
Description: Oral bioavailability in Sprague-Dawley rat at 10 mg/kg, po
Data set [10] in a line: Half life in Sprague-Dawley rat at 10 mg/kg, po or 2 mg/kg, iv. As to conditions: in vivo.
Data set [11] in a line: Partition coefficient, log P of the compound. As to conditions: octanol/water.

Structures are written as SMILES.

Consider `CCOC(=O)c1c(Cl)cccc1-c1cnc([C@@H](C)NC(=O)C2(NC(=O)C(F)(F)F)CC2)c(F)c1`, for which, on B1 bradykinin receptor, the Ki – broadly, the dissociation constant of the complex between target and ligand, obtained from inhibition or displacement – was determined as 1.2 nM. Also, the half-life (as a rule, the time needed for the level to fall by half in the phase considered) in data set [1] was 1.1 h; in [3], 2.3 h; in [10], 0.8 h. Also, the Kp (commonly the ratio of the level in a tissue or fluid to that in plasma or blood) at 0.5 h in data set [2] (brain and plasma) turned out to be 0.7. For the same compound, the clearance in data set [4] came to 6.8 mL/min/kg. The compound further had an Occ90 in [5] of 225 nM. Also, the results for the bioavailability in “in vivo [6]”, in the data set “in vivo [7]” and in the data set “in vivo [9]” were 20%, 12% and 52%, respectively. For the same compound, in [8], the apparent permeability coefficient (Papp) (as a rule, a coefficient for how fast a substance crosses the barrier) was determined as 28 ×10⁻⁶ cm/s. For the same compound, in data set [11], the logP (usually the decadic logarithm of the partition coefficient of the neutral form, usually between octanol and water) is 3.6.

In the case of `CCOC(=O)c1c(Cl)cc(Cl)cc1-c1cnc([C@@H](C)NC(=O)C2(NC(=O)C(F)(F)F)CC2)c(F)c1`, the Ki on B1 bradykinin receptor stood at 1.8 nM.

`CCOC(=O)c1c(Cl)cc(Cl)cc1-c1ccc([C@@H](C)NC(=O)C2(NC(=O)C(F)(F)F)CC2)c(F)c1` showed a Ki on B1 bradykinin receptor of 1.85 nM.

On B1 bradykinin receptor, `COC(=O)c1c(Cl)cc(Cl)cc1-c1ccc([C@@H](C)NC(=O)C2(NC(=O)C(F)(F)F)CC2)c(F)c1` came in with a Ki of 0.46 nM. Moreover, the values for the half-life in data set [1] and in data set [10] were 3.9 h and 4.6 h, respectively. The Kp at 0.5 h in [2] (brain) was 1.1. In data set [5], this compound showed an Occ90 of 450 nM. Besides, the values for the bioavailability in the data set “in vivo [6]”, in “in vivo [7]” and in “in vivo [9]” were 19%, 20% and 38%, respectively. In addition, in data set [8], the Papp amounted to 18 ×10⁻⁶ cm/s. Further, in data set [11], the logP is over 3.8.

Turning to `COC(=O)c1cc(Cl)ccc1-c1ccc([C@@H](C)NC(=O)C2(NC(=O)C(F)(F)F)CC2)c(F)c1`, the affinity on B1 bradykinin receptor, expressed as Ki, was 134 nM.

`COC(=O)c1c(Cl)cc(Cl)cc1-c1cnc([C@@H](C)NC(=O)C2(NC(=O)C(F)(F)F)CC2)c(F)c1` registered a Ki on B1 bradykinin receptor of 2.6 nM. Also, the values for the half-life in data set [1], in data set [3] and in data set [10] were 2.5 h, 6.6 h and 1.3 h, respectively. Also, the Kp at 0.5 h in data set [2] (brain and plasma) worked out at 0.8. Besides, the clearance in [4] worked out at 16.6 mL/min/kg. The same compound had an Occ90 in [5] of 210 nM. For the same compound, the bioavailability (commonly the share of a dose that reaches the circulation, judged against a reference dose that is usually intravenous) in the data set “in vivo [6]” was found to be 66%; in the data set “in vivo [7]”, 12%; in “in vivo [9]”, 19%. Further, the Papp in data set [8] came out at 29 ×10⁻⁶ cm/s. Further, the logP in [11] turned out to be 3.3.

`COC(=O)c1c(Cl)cccc1-c1cnc([C@@H](C)NC(=O)C2(NC(=O)C(F)(F)F)CC2)c(F)c1` gave a Ki at B1 bradykinin receptor of 0.77 nM. In data set [5], this compound registered an Occ90 of 350 nM.

With `Cc1nc(-c2c(Cl)cc(Cl)cc2-c2ccc([C@@H](C)NC(=O)C3(NC(=O)C(F)(F)F)CC3)c(F)c2)no1`, the Ki at B1 bradykinin receptor turned out to be 2.4 nM. This compound also registered a clearance in data set [4] of 0.8 mL/min/kg. Further, the Papp in [8] stood at 23 ×10⁻⁶ cm/s. Further, in “in vivo [9]”, the bioavailability is 39%. Besides, the half-life in data set [10] was 5.6 h.

On to `C[C@@H](NC(=O)C1(NC(=O)C(F)(F)F)CC1)c1ccc(-c2cc(Cl)cc(F)c2-c2nnn(C)n2)cc1F`, for which, at B1 bradykinin receptor, the Ki stood at 1.1 nM. In data set [4], the clearance amounted to 2.3 mL/min/kg. In addition, in [8], the Papp was 23 ×10⁻⁶ cm/s. Besides, the bioavailability in “in vivo [9]” turned out to be 64%. The compound also had a half-life in data set [10] of 3.5 h.

For `COC(=O)c1ccc(Cl)cc1-c1ccc([C@@H](C)NC(=O)C2(NC(=O)C(F)(F)F)CC2)c(F)c1`, the inhibition constant Ki on B1 bradykinin receptor worked out at 2.05 nM.

On B1 bradykinin receptor, `C[C@@H](NC(=O)C1(NC(=O)C(F)(F)F)CC1)c1ccc(-c2cc(Cl)cc(Cl)c2-c2nnn(C)n2)cc1F` returned a Ki of 1.58 nM. In addition, the Occ90 in data set [5] was found to be 540 nM.

On B1 bradykinin receptor, `Cc1nc(-c2ccc(Cl)cc2-c2ccc([C@@H](C)NC(=O)C3(NC(=O)C(F)(F)F)CC3)c(F)c2)no1` came in with a Ki of 1.39 nM.

For `COC(=O)c1c(Cl)cccc1-c1ccc([C@@H](C)NC(=O)C2(NC(=O)C(F)(F)F)CC2)c(F)c1` [MK0686], the Kp at 0.5 h in data set [2] (brain and plasma) amounted to 0.4. The Occ90 in data set [5] stood at 520 nM. Moreover, in data set [11], the logP is over 3.6.

As for `C[C@@H](NC(=O)C1(NC(=O)C(F)(F)F)CC1)c1ncc(-c2cc(Cl)cc(Cl)c2-c2nnn(C)n2)cc1F`, on B1 bradykinin receptor, the inhibition constant Ki came to 3.8 nM.

Consider `COC(=O)c1c(F)cc(Cl)cc1-c1ccc([C@@H](C)NC(=O)C2(NC(=O)C(F)(F)F)CC2)c(F)c1`, for which the Ki at B1 bradykinin receptor is 0.68 nM. Also, the clearance in [4] came to 13 mL/min/kg. Moreover, the Papp in data set [8] was found to be 27 ×10⁻⁶ cm/s. Moreover, the bioavailability in the data set “in vivo [9]” came to 21%. The half-life in [10] was 0.8 h.

`Cc1noc(-c2ccc(Cl)cc2-c2ccc([C@@H](C)NC(=O)C3(NC(=O)C(F)(F)F)CC3)c(F)c2)n1` had a Ki on B1 bradykinin receptor of 7.6 nM.

`C[C@@H](NC(=O)C1(NC(=O)C(F)(F)F)CC1)c1ccc(-c2cc(Cl)ccc2-c2nnn(C)n2)cc1F` returned a Ki on B1 bradykinin receptor of 1.45 nM.

The values above are taken from ChEMBL document CHEMBL1148872, “Bradykinin B1 antagonists: biphenyl SAR studies in the cyclopropanecarboxamide series” (Bioorg Med Chem Lett, 2007).
